# How the values were obtained:
# Capivasertib = compound: C1CN(CCC1(C(=O)N[C@@H](CCO)C2=CC=C(C=C2)Cl)N)C3=NC=NC4=C3C=CN4 [Capivasertib]; settings: max 10 µM
# Outline: (§1)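 After 24 hours at 37°C and 5% CO2 in 1536-well plates holding 7.5 μl of DMEM/F12 or RPMI with 10% FBS, cancer cell lines were dosed for 72 hours, with final DMSO typically 0.2%. Viability came from CellTiter-Glo 2.0 luminescence, scaled between the means of blank wells and DMSO wells. A non-linear mixed effects model fitted a two-parameter logistic curve to each dose response to give the single-agent IC50.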
# AZD1775 = compound: C=CCn1c(=O)c2cnc(Nc3ccc(N4CCN(C)CC4)cc3)nc2n1-c1cccc(C(C)(C)O)n1 [AZD1775]
# Outline: as §1
# Trametinib = compound: CC(=O)Nc1cccc(-n2c(=O)n(C3CC3)c(=O)c3c(Nc4ccc(I)cc4F)n(C)c(=O)c(C)c32)c1 [Trametinib]; settings: max 1 µM
# Outline: as §1
# Palbociclib = compound: CC(=O)c1c(C)c2cnc(Nc3ccc(N4CCNCC4)cn3)nc2n(C2CCCC2)c1=O [Palbociclib]; settings: max 10 µM
# Outline: as §1
# AZD1390 = compound: CC(C)n1c(=O)n(C)c2cnc3cc(F)c(-c4ccc(OCCCN5CCCCC5)nc4)cc3c21 [AZD1390]; settings: max 0.3 µM
# Outline: as §1
# Venetoclax = compound: CC1(C)CCC(CN2CCN(c3ccc(C(=O)NS(=O)(=O)c4ccc(NCC5CCOCC5)c([N+](=O)[O-])c4)c(Oc4cnc5[nH]ccc5c4)c3)CC2)=C(c2ccc(Cl)cc2)C1 [Venetoclax]; settings: max 1 µM
# Outline: as §1
# Dasatinib = compound: CC1=C(C(=CC=C1)Cl)NC(=O)C2=CN=C(S2)NC3=CC(=NC(=N3)C)N4CCN(CC4)CCO [Dasatinib]; settings: max 2 µM
# Outline: as §1
# SG3199 = compound: CC1=CN2[C@@H](C1)C=NC3=CC(=C(C=C3C2=O)OC)OCCCCCOC4=C(C=C5C(=C4)N=C[C@@H]6CC(=CN6C5=O)C)OC [SG3199]; settings: max 0.001 µM
# Outline: as §1
# AZD2811 = compound: CCN(CCO)CCCOc1ccc2c(Nc3cc(CC(=O)Nc4cccc(F)c4)[nH]n3)ncnc2c1 [AZD2811]; settings: max 1 µM
# Outline: as §1
# SN-38 = compound: CCc1c2c(nc3ccc(O)cc13)-c1cc3c(c(=O)n1C2)COC(=O)[C@]3(O)CC [SN-38]; settings: max 0.3 µM
# Outline: as §1
# AZD0156 = compound: CN(C)CCCOc1ccc(-c2ccc3ncc4c(c3c2)n(C2CCOCC2)c(=O)n4C)cn1 [AZD0156]
# Outline: as §1
# AZD4320 = compound: CN(CC[C@H](CSC1=CC=CC=C1)NC2=C(C=C(C=C2)S(=O)(=O)NC(=O)C3=CC=C(C=C3)N4CCC(CC4)[C@H](C5=CC=CC=C5C6=CC=C(C=C6)Cl)O)S(=O)(=O)C(F)(F)F)CCO [AZD4320]; settings: max 1 µM
# Outline: as §1
# Alisertib = compound: COc1cc(Nc2ncc3c(n2)-c2ccc(Cl)cc2C(c2c(F)cccc2OC)=NC3)ccc1C(=O)O [Alisertib]; settings: max 10 µM
# Outline: as §1
# Gefitinib = compound: COc1cc2ncnc(Nc3ccc(F)c(Cl)c3)c2cc1OCCCN1CCOCC1 [Gefitinib]; settings: max 10 µM
# Outline: as §1
# Prexasertib = compound: COc1cccc(OCCCN)c1-c1cc(Nc2cnc(C#N)cn2)n[nH]1 [Prexasertib]; settings: max 1 µM
# Outline: as §1
# Doxorubicin = compound: COc1cccc2c1C(=O)c1c(O)c3c(c(O)c1C2=O)C[C@@](O)(C(=O)CO)C[C@@H]3O[C@H]1C[C@H](N)[C@H](O)[C@H](C)O1 [Doxorubicin]; settings: max 1 µM
# Outline: as §1
# AZD5153 = compound: COc1nnc2ccc(N3CCC(c4ccc(OCCN5CCN(C)C(=O)[C@H]5C)cc4)CC3)nn12 [AZD5153]; settings: max 1 µM
# Outline: as §1
# Lapatinib = compound: CS(=O)(=O)CCNCc1ccc(-c2ccc3ncnc(Nc4ccc(OCc5cccc(F)c5)c(Cl)c4)c3c2)o1 [Lapatinib]; settings: max 10 µM
# Outline: as §1
# AZD8186 = compound: C[C@@H](Nc1cc(F)cc(F)c1)c1cc(C(=O)N(C)C)cc2c(=O)cc(N3CCOCC3)oc12 [AZD8186]; settings: max 3 µM
# Outline: as §1
# Crizotinib = compound: C[C@@H](Oc1cc(-c2cnn(C3CCNCC3)c2)cnc1N)c1c(Cl)ccc(F)c1Cl [Crizotinib]; settings: max 10 µM
# Outline: as §1
# Savolitinib = compound: C[C@@H](c1ccc2nccn2c1)n1nnc2ncc(-c3cnn(C)c3)nc21 [Savolitinib]; settings: max 1 µM
# Outline: as §1
# AZD6738 = compound: C[C@@H]1COCCN1C2=NC(=NC(=C2)C3(CC3)[S@](=N)(=O)C)C4=C5C=CNC5=NC=C4 [AZD6738]; settings: max 10 µM
# Outline: as §1
# AZD5991 = compound: Cc1c2c(nn1C)CSCc1cc(n(C)n1)CSc1cc(c3ccccc3c1)OCCCc1c(C(=O)O)n(C)c3c-2c(Cl)ccc13 [AZD5991]; settings: max 1 µM
# Outline: as §1
# AZD7648 = compound: Cc1cc2ncnn2cc1Nc1ncc2c(n1)n(C1CCOCC1)c(=O)n2C [AZD7648]; settings: max 10 µM
# Outline: as §1
# Taselisib = compound: Cc1nc(-c2cn3c(n2)-c2ccc(-c4cnn(C(C)(C)C(N)=O)c4)cc2OCC3)n(C(C)C)n1 [Taselisib]; settings: max 10 µM
# Outline: as §1
# Selumetinib = compound: Cn1cnc2c(F)c(Nc3ccc(Br)cc3Cl)c(C(=O)NOCCO)cc21 [Selumetinib]; settings: max 10 µM
# Outline: as §1
# Olaparib = compound: O=C(c1cc(Cc2n[nH]c(=O)c3ccccc23)ccc1F)N1CCN(C(=O)C2CC2)CC1 [Olaparib]; settings: max 10 µM
# Outline: as §1
Cell Line,"IC50, cell viability 72 h (Capivasertib) [µM]","IC50, cell viability 72 h (AZD1775; max 1 µM) [µM]","IC50, cell viability 72 h (Trametinib) [µM]","IC50, cell viability 72 h (Palbociclib) [µM]","IC50, cell viability 72 h (AZD1390) [µM]","IC50, cell viability 72 h (Venetoclax) [µM]","IC50, cell viability 72 h (Dasatinib) [µM]","IC50, cell viability 72 h (SG3199) [µM]","IC50, cell viability 72 h (AZD2811) [µM]","IC50, cell viability 72 h (SN-38) [µM]","IC50, cell viability 72 h (AZD0156; max 1 µM) [µM]","IC50, cell viability 72 h (AZD4320) [µM]","IC50, cell viability 72 h (Alisertib) [µM]","IC50, cell viability 72 h (Gefitinib) [µM]","IC50, cell viability 72 h (Prexasertib) [µM]","IC50, cell viability 72 h (Doxorubicin) [µM]","IC50, cell viability 72 h (AZD5153) [µM]","IC50, cell viability 72 h (Lapatinib) [µM]","IC50, cell viability 72 h (AZD8186) [µM]","IC50, cell viability 72 h (Crizotinib) [µM]","IC50, cell viability 72 h (Savolitinib) [µM]","IC50, cell viability 72 h (AZD6738) [µM]","IC50, cell viability 72 h (AZD5991) [µM]","IC50, cell viability 72 h (AZD7648) [µM]","IC50, cell viability 72 h (Taselisib) [µM]","IC50, cell viability 72 h (Selumetinib) [µM]","IC50, cell viability 72 h (Olaparib) [µM]","IC50, cell viability 72 h (AZD1775; max 3 µM) [µM]","IC50, cell viability 72 h (AZD0156; max 3 µM) [µM]"
FTC-133 (Thyroid Gland Carcinoma),8.76,0.968,> 1,> 10,> 0.3,> 1,> 2,> 0.001,> 1,0.00651,> 1,> 1,8.36,> 10,0.0292,0.352,0.657,> 10,> 3,> 10,> 1,4.69,0.999,> 10,> 10,> 10,> 10,,
HeLa (Cervical Carcinoma),> 10,,> 1,> 10,> 0.3,> 1,> 2,> 0.001,> 1,> 0.3,,> 1,> 10,> 10,0.105,> 1,> 1,> 10,> 3,> 10,> 1,> 10,> 1,> 10,> 10,> 10,> 10,0.893,> 3

# Source: the supplement of paper PMC11061612
